In US9522888B2, “Substituted bicyclic compounds” (BRISTOL-MYERS SQUIBB COMPANY, priority 2014, dated 2016):

Tests used:
[1] = biological target: S1P1 (membranes prepared from S1P1/CHO cells) (Homo sapiens (Human), UniProt P21453); test: Receptor [35S] GTPγS binding assay (S1P1 GTPγS); format: biochemical; settings: phosphate examples; read-out: S1P1 GTPγS
In short: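 Agonist-stimulated [35S]GTPγS binding (0.2 nM final) to S1P1/CHO membranes, 3 μg protein/well, measured after 45 min at room temperature. Buffer contained 10 μM GDP, saponin and fatty-acid-free BSA at pH 7.5. Compounds tested as 11-point 3-fold series; bound label captured on filters, scintillation-counted, EC50 reported.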

[2] = biological target: human S1P1 (Homo sapiens (Human), UniProt P21453); test: S1P1 binding assay (33P-S1P radioligand competition, CHO cell membranes); settings: phosphate examples; read-out: S1P1 Binding
In short: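 Radioligand is 33P-S1P, competing for membranes from human S1P1-expressing CHO cells. Membranes resuspended in 50 mM HEPES pH 7.5, 100 mM NaCl, 1 mM MgCl2, 2 mM EDTA.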

[3] = biological target: hS1P1/CHO cells (Homo sapiens (Human), UniProt P21453); test: hS1P1 ERK phosphorylation (S1P1 pERK); format: cell-based; settings: phosphate examples
In short: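 Agonism read as ERK phosphorylation (SureFire pERK) in hS1P1/CHO lysates, normalised to the maximal effect of 10 μM S1P. Cells were held 2 h in serum-free medium, then treated with compound for 7 min at 37° C. in HBSS/20 mM HEPES.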

[4] = biological target: S1P3 (membranes prepared from EDG3-Gal5-bla HEK293T cells) (Homo sapiens (Human), UniProt Q99500); test: Receptor [35S] GTPγS binding assay (S1P3 GTPγS); format: biochemical; settings: phosphate examples; read-out: S1P3 GTPγS
In short: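 Membranes (3 μg protein/well) from S1P1/CHO cells or EDG3-Gal5-bla HEK293T cells (S1P3) were incubated 45 min at room temperature with 0.2 nM final [35S]GTPγS in HEPES pH 7.5 buffer with 10 μM GDP, MgCl2 and saponin. Bound label counted after filtration; EC50 from 11-point, 3-fold dilutions.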

S1P3 (membranes prepared from EDG3-Gal5-bla HEK293T cells), sequence (Q99500 whole entry): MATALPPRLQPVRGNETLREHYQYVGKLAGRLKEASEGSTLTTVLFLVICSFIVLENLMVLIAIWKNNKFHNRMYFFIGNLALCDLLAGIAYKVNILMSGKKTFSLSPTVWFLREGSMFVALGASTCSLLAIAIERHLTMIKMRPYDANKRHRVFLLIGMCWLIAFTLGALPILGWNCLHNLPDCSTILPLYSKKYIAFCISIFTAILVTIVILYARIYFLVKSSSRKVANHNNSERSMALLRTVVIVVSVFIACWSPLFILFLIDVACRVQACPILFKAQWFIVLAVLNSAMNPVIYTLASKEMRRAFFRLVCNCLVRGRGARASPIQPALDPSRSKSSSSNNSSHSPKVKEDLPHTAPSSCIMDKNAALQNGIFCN
human S1P1, sequence (P21453 whole entry): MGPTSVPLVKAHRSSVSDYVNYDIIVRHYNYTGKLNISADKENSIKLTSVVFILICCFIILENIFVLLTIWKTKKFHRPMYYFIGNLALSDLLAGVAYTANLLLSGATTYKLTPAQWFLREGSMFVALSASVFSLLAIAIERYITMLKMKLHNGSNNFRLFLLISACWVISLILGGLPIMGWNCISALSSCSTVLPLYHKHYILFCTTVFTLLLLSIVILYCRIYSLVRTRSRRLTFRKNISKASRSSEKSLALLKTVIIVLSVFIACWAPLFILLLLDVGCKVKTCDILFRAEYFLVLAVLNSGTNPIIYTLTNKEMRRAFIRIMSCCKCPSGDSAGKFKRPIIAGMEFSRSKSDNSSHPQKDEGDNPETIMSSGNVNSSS
S1P1 (membranes prepared from S1P1/CHO cells), sequence (P21453 whole entry): as above
hS1P1/CHO cells, sequence (P21453 whole entry): as above

SMILES | EC50 [1] [nM] | IC50 [2] [nM] | EC50 [3] [nM] | EC50 [4] [nM]
COCC[C@@H]1CCc2cc([C@H]3CC[C@](N)(COP(=O)(O)O)C3)ccc2C1 [compound 540] | 100 to 1000 | < 10 | < 10 | > 625
CCOCC[C@@H]1CCc2cc([C@H]3CC[C@](N)(COP(=O)(O)O)C3)ccc2C1 [compound 541] | 10 to 100 | < 10 | < 10 | > 625
COc1cccc(OCC[C@@H]2CCc3cc([C@H]4CC[C@](N)(COP(=O)(O)O)C4)ccc3C2)c1 [compound 544] | 100 to 1000 | 10 to 100 | < 10 | > 625
COc1cccc(OCC[C@H]2CCc3cc([C@H]4CC[C@](N)(COP(=O)(O)O)C4)ccc3C2)c1 [compound 545] | 10 to 100 | 10 to 100 | < 10 | > 625
COc1ccc(C[C@@H]2CCc3cc([C@H]4CC[C@](N)(COP(=O)(O)O)C4)ccc3C2)c(C)c1 [compound 546] | 100 to 1000 | 100 to 1000 | 10 to 100 | > 625
CCOc1ccc(C[C@H]2CCc3cc([C@H]4CC[C@](N)(COP(=O)(O)O)C4)ccc3C2)cc1 [compound 547] | 10 to 100 | < 10 | 10 to 100 | > 625
CCOc1cccc(C[C@H]2CCc3cc([C@H]4CC[C@](N)(COP(=O)(O)O)C4)ccc3C2)c1 [compound 548] | 10 to 100 | 10 to 100 | < 10 | > 625
CCOc1ccc(C[C@@H]2CCc3cc([C@H]4CC[C@](N)(COP(=O)(O)O)C4)ccc3C2)cc1 [compound 549] | 100 to 1000 | 100 to 1000 | < 10 | > 625
COCc1ccc(C[C@@H]2CCc3cc([C@H]4CC[C@](N)(COP(=O)(O)O)C4)ccc3C2)cc1 [compound 550] | 10 to 100 | 10 to 100 | < 10 | > 625
CCOc1cccc(C[C@@H]2CCc3cc([C@H]4CC[C@](N)(COP(=O)(O)O)C4)ccc3C2)c1 [compound 551] | 10 to 100 | 10 to 100 | 10 to 100 | > 625
COCc1cccc(C[C@@H]2CCc3cc([C@H]4CC[C@](N)(COP(=O)(O)O)C4)ccc3C2)c1 [compound 552] | 10 to 100 | < 10 | 10 to 100 | > 625
COc1ccc(C[C@@H]2CCc3cc([C@H]4CC[C@](N)(COP(=O)(O)O)C4)ccc3C2)cc1OC [compound 553] | 100 to 1000 | 100 to 1000 | < 10 | > 625
C=CCCCC[C@@H]1CCc2cc([C@H]3CC[C@](N)(COP(=O)(O)O)C3)ccc2C1 [compound 555] | 10 to 100 | < 10 | 10 to 100 | > 625
CC(C)=CCCC[C@@H]1CCc2cc([C@H]3CC[C@](N)(COP(=O)(O)O)C3)ccc2C1 [compound 556] | < 10 | 1000 to 10000 | < 10 | > 625
N[C@]1(COP(=O)(O)O)CC[C@H](c2ccc3c(c2)CC[C@@H](CCCC2CCOCC2)C3)C1 [compound 557] | 10 to 100 | 10 to 100 | 10 to 100 | > 625
N[C@]1(COP(=O)(O)O)CC[C@H](c2ccc3c(c2)CC[C@@H](CCC2CCOCC2)C3)C1 [compound 558] | < 10 | < 10 | < 10 | > 625
CC(C)Oc1ccc(C[C@@H]2CCc3cc([C@H]4CC[C@](N)(COP(=O)(O)O)C4)ccc3C2)cc1 [compound 559] | 100 to 1000 | 100 to 1000 | 10 to 100 | > 625
CC(C)Oc1cccc(C[C@@H]2CCc3cc([C@H]4CC[C@](N)(COP(=O)(O)O)C4)ccc3C2)c1 [compound 560] | < 10 | 10 to 100 | < 10 | > 625
CN(C)CCCCC[C@@H]1CCc2cc([C@H]3CC[C@](N)(COP(=O)(O)O)C3)ccc2C1 [compound 561] | 100 to 1000 | 100 to 1000 | 10 to 100 | > 625
CN(C)C(=O)Cc1ccc(C[C@@H]2CCc3cc([C@H]4CC[C@](N)(COP(=O)(O)O)C4)ccc3C2)cc1 [compound 562] | 100 to 1000 | 100 to 1000 | 10 to 100 | > 625
COc1ccccc1CCC[C@@H]1CCc2cc([C@H]3CC[C@](N)(COP(=O)(O)O)C3)ccc2C1 [compound 563] | 100 to 1000 | 100 to 1000 | 100 to 1000 | > 625

SMILES | EC50 [1] [nM] | IC50 [2] [nM] | EC50 [3] [nM] | EC50 [4] [nM]
COc1cccc(CCC[C@@H]2CCc3cc([C@H]4CC[C@](N)(COP(=O)(O)O)C4)ccc3C2)c1 [compound 564] | 10 to 100 | 10 to 100 | 10 to 100 | > 625
COc1cccc(C[C@H]2CCc3cc([C@H]4CC[C@](N)(COP(=O)(O)O)C4)ccc3C2)c1 [compound 567] | < 10 | < 10 | 10 to 100 | > 625
COc1ccc(C[C@H]2CCc3cc([C@H]4CC[C@](N)(COP(=O)(O)O)C4)ccc3C2)cc1 [compound 568] | < 10 | 10 to 100 | < 10 | > 625
N[C@]1(COP(=O)(O)O)CC[C@H](c2ccc3c(c2)CC[C@H](c2ccccc2)C3)C1 [compound 569] | 10 to 100 | < 10 | < 10 | > 625
N[C@]1(COP(=O)(O)O)CC[C@H](c2ccc3c(c2)CC[C@@H](Cc2ccccc2)C3)C1 [compound 571] | 10 to 100 | 10 to 100 | 10 to 100 | > 625
N[C@]1(COP(=O)(O)O)CC[C@H](c2ccc3c(c2)CC[C@H](Cc2ccccc2)C3)C1 [compound 572] | < 10 | < 10 | 10 to 100 | > 625
N[C@]1(COP(=O)(O)O)CC[C@H](c2ccc3c(c2)CC[C@@H](CCc2ccccc2)C3)C1 [compound 573] | 10 to 100 | 10 to 100 | 10 to 100 | > 625
CCCCCC1CCc2cc([C@H]3CC[C@](N)(COP(=O)(O)O)C3)ccc2C1 (some centres unmarked) [compound 575] | 10 to 100 | 10 to 100 | < 10 | > 625
CCCCCC1CCc2cc([C@H]3CC[C@](N)(COP(=O)(O)O)C3)ccc2C1 (some centres unmarked) [compound 576] | 100 to 1000 | 10 to 100 | 10 to 100 | > 625
CCCCC[C@@H]1CCc2cc([C@@H]3CC[C@@](N)(COP(=O)(O)O)C3)ccc2C1 [compound 577] | < 10 | < 10 | < 10 | > 625
CCCCC[C@H]1CCc2cc([C@@H]3CC[C@@](N)(COP(=O)(O)O)C3)ccc2C1 [compound 578] | 10 to 100 | < 10 | < 10 | > 625
C#CCCOCCO[C@H]1CCc2cc([C@@H]3CC[C@@](N)(COP(=O)(O)O)C3)ccc2C1 [compound 586] | 10 to 100 | < 10 | < 10 | > 625
CC(C)CCOCCO[C@H]1CCc2cc([C@H]3CC[C@](N)(COP(=O)(O)O)C3)ccc2C1 [compound 587] | 10 to 100 | < 10 | < 10 | > 625
CCCCOCCO[C@H]1CCc2cc([C@@H]3CC[C@@](N)(COP(=O)(O)O)C3)ccc2C1 [compound 591] | 10 to 100 | 10 to 100 | < 10 | > 625
CCCCOCCO[C@@H]1CCc2cc([C@@H]3CC[C@@](N)(COP(=O)(O)O)C3)ccc2C1 [compound 592] | 10 to 100 | < 10 | < 10 | > 625
COc1ccc(CC[C@H]2CCc3cc([C@@H]4CC[C@@](N)(COP(=O)(O)O)C4)ccc3C2)cc1 [compound 594] | 10 to 100 | 10 to 100 | 100 to 1000 | > 625
COCCC[C@H]1CCc2cc([C@@H]3CC[C@@](N)(COP(=O)(O)O)C3)ccc2C1 [compound 595] | 10 to 100 | < 10 | < 10 | > 625
COCCCC[C@H]1CCc2cc([C@@H]3CC[C@@](N)(COP(=O)(O)O)C3)ccc2C1 [compound 596] | 10 to 100 | < 10 | < 10 | > 625
COCCCCC[C@H]1CCc2cc([C@@H]3CC[C@@](N)(COP(=O)(O)O)C3)ccc2C1 [compound 598] | 10 to 100 | 10 to 100 | < 10 | > 625
CC(C)OCCC[C@H]1CCc2cc([C@@H]3CC[C@@](N)(COP(=O)(O)O)C3)ccc2C1 [compound 600] | < 10 | 10 to 100 | < 10 | > 625
